Assay results reported in ChEMBL document CHEMBL1129517, “Pyrazolo[4,3-e]-1,2,4-triazolo[1,5-c]pyrimidine derivatives: potent and selective A(2A) adenosine antagonists” (J Med Chem, 1996).

Tests used:
[1] = test system: Adenosine receptor A2a (Oryctolagus cuniculus)
Adenosine receptor A2a = Adenosine receptor A2a (Rattus norvegicus, UniProt P30543)
Description: Inhibition of [3H]-CGS- 21680 binding to Adenosine A2A receptor in rat striatal homogenates.

Adenosine receptor A1 = molecular target: T1, Adenosine receptor A1 (Rattus norvegicus, UniProt P25099); assay: biochemical
T1 sequence (P25099 whole entry): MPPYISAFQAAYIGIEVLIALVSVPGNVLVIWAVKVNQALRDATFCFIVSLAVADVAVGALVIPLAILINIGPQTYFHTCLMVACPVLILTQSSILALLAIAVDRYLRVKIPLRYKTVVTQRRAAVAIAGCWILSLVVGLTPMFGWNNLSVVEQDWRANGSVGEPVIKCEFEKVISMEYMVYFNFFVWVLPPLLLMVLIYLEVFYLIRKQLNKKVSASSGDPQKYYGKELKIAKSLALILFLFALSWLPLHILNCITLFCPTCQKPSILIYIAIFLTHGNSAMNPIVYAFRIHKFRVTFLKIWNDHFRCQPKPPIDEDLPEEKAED
Description: Inhibition of [3H]-CHA binding to Adenosine A1 receptor in rat whole brain homogenates.

Sequence of Adenosine receptor A2a (P30543 whole entry): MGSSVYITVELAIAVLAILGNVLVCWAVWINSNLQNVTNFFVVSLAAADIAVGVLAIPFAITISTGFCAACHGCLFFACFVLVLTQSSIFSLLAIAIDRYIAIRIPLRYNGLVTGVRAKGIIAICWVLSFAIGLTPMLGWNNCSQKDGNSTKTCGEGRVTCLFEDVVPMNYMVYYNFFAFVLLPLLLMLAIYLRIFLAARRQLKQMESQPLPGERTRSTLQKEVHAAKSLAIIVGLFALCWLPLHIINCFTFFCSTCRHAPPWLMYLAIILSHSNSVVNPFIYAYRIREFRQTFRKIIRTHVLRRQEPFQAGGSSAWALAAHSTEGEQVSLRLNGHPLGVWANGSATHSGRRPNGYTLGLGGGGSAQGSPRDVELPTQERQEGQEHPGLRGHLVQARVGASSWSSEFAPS

SMILES | ED50 [1] [nM] | Ki (Adenosine receptor A2a) [nM] | Ki (Adenosine receptor A1) [nM]
Nc1nc2nn(Cc3ccc(F)cc3)cc2c2nc(-c3ccco3)nn12 | 4 |  | 
Nc1nc2c(cnn2CCO)c2nc(-c3ccco3)nn12 |  | 77.7 | 
Nc1nc2c(cnn2CCOCc2ccccc2)c2nc(-c3ccco3)nn12 |  | > 1000 | > 1000
CCCCn1ncc2c1nc(N)n1nc(-c3ccco3)nc21 | 300 |  | 
CCC(C)Cn1ncc2c1nc(N)n1nc(-c3ccco3)nc21 (centres undefined) |  | 12 | 116
Nc1nc2c(cnn2CCCCc2ccccc2)c2nc(-c3ccco3)nn12 |  | 21 | 2710
OCCn1ncc2c1nc(NCc1ccccc1)n1nc(-c3ccco3)nc21 |  | 166 | 330
CC(C)(C)n1ncc2c1nc(N)n1nc(-c3ccco3)nc21 |  | 260 | 430
Nc1nc2c(cnn2-c2ccccc2)c2nc(-c3ccco3)nn12 | > 1000 | 22.7 | 119
Nc1nc2c(cnn2CCN2CCOCC2)c2nc(-c3ccco3)nn12 | 30 | 5.6 | 471
Nc1nc2c(cnn2Cc2ccc(F)cc2)c2nc(-c3ccco3)nn12 | 10600 | 12 | 189
Nc1nc2n[nH]cc2c2nc(-c3ccco3)nn12 |  | 22.6 | 210
CC(C)Cc1ccc(CCn2ncc3c2nc(N)n2nc(-c4ccco4)nc32)cc1 | < 1000 | 22 | > 3000
Nc1nc2c(cnn2CCCc2ccccc2)c2nc(-c3ccco3)nn12 [SCH-63390] |  | 2.4 | 504
